In patent US4937240A, “Thienotriazolodiazepine compounds and pharmaceutical uses thereof” (Yoshitomi Pharmaceutical Industries, Ltd., priority 1988, dated 1990):

Key:
[1] = test system: PAF; settings: literature; cited from earlier work
[2] = test system: PAF-induced lethal shock; assay: Effect on PAF-induced lethal shock in mice (p.o.); assay type: in vivo; settings: Mus musculus, male ICR mice, 80 μg/kg PAF i.v. 1 hour after oral administration, observed 24 hours
Protocol: (§1) In order to determine PAF-antagonistic activity of the compounds of the present invention, the inhibitory effects of PAF-induced lethal shock in mice were investigated by oral administration and intravenous administration.
Experiment 1: Effect on PAF-induced lethal shock in mice (p.o.)
The experiment was carried out according to the method of Young et al. described in Prostaglandins, vol. 30, p. 545 (1985). Groups of 9 to 15 male ICR mice (Charles River) weighing 25-30 g were used. 80 μg/kg of PAF (Serdary Research Lab.) solution was intravenously administered in a lateral tail vein 1 hour after the oral administration of test compound (0.1 ml/10 g). […] Results were given as ED50 (mg/kg) in Table 1.

[3] = test system: PAF-induced lethal shock; assay: Effect on PAF-induced lethal shock in mice (i.v.); assay type: in vivo; settings: Mus musculus, male ICR mice, 80 μg/kg PAF i.v. 1 hour after intravenous administration, observed 24 hours
Protocol: as §1
Experiment 2: Effect on PAF-induced lethal shock in mice (i.v.)
The experiment was carried out according to the method of Young et al. as described in Experiment 1. Groups of 8 to 15 male ICR mice (Charles River) weighing 25-30 g were used. 80 μg/kg of PAF (Serdary Research Lab.) solution was intravenously administered in a lateral a tail vein 1 hour after the intravenous administration of test compound ([…]). […] Results were given as ED50 (mg/kg) in Table 2.

SMILES | antagonistic activity on PAF [1] | ED50 [2] [mg/kg] | ED50 [3] [mg/kg]
Cc1nnc2n1-c1sc(CCC(=O)N3CCOCC3)cc1C(c1ccccc1Cl)=NC2 [4-(2-chlorophenyl)-9-methyl-6H-thieno[3,2-f][1,2,4]triazolo[] [4-(2-chlorophenyl)-9-methyl-6H-thieno[3,2-f][1,2,4]triazolo[4,3-a][1,4]diazepine-2-propionic acid morpholide] | exhibit antagonistic activity on PAF | – | –
Cc1nnc2n1-c1sc(CCC(=O)N3CCOCC3)cc1C(c1ccccc1Cl)=NC2C (centres unmarked) [A, 3-[4-(2-chlorophenyl)-6,9-dimethyl-6H-thieno[3,2-f][1,2,4]triazolo[4,3-a][1,4]diazepin-2-yl]propionic acid morpholide] | – | 0.065 | 0.021
Cc1nnc2n1-c1sc3c(c1C(c1ccccc1Cl)=NC2C)CC(C(=O)N1CCOCC1)C3 (centres unmarked) [B, 5-(2-chlorophenyl)-3,4-dihydro-7,10-dimethyl-3-morpholinocarbonyl-2H,7H-cyclopenta[4,5]thieno[3,2-f][1,2,4]triazolo[4,3-a][1,4]diazepine] | – | 0.55 | –
Cc1nnc2n1-c1sc3c(c1C(c1ccccc1Cl)=NC2C)CC(CN1CCOCC1)C3 (centres unmarked) [C, 5-(2-chlorophenyl)-3,4-dihydro-7,10-dimethyl-3-morpholinomethyl-2H,7H-cyclopenta[4,5]thieno[3,2-f][1,2,4]triazolo[4,3-a][1,4]diazepine 1/2 hydrate] | – | 0.2 | –
Cc1nnc2n1-c1sc(CCC(=O)N3CCN(CC(C)C)CC3)cc1C(c1ccccc1Cl)=NC2C (centres unmarked) [D, 3-[4-(2-chlorophenyl)-6,9-dimethyl-6H-thieno[3,2-f][1,2,4]triazolo[4,3-a][1,4]diazepin-2-yl]propionic acid 4-isobutyl-1-piperazide] | – | 0.3 | –
CCCN(CCC)C(=O)CCc1cc2c(s1)-n1c(C)nnc1C(C)N=C2c1ccccc1Cl (centres unmarked) [E, 3-[4-(2-chlorophenyl)-6,9-dimethyl-6H-thieno[3,2-f][1,2,4]triazolo[4,3-a][1,4]diazepin-2-yl]propionic acid N,N-dipropylamide] | – | 0.14 | –
Cc1nnc2n1-c1sc3c(c1C(c1ccccc1Cl)=NC2)CC(CN1CCOCC1)C3 (centres unmarked) [STY 2108, 5-(2-chlorophenyl)-3,4-dihydro-10-methyl-3-morpholinomethyl-2H,7H-cyclopenta[4,5]thieno[3,2-f][1,2,4]triazolo[4,3-a][1,4]diazepine] | exhibit more potent PAF-antagonistic activity | – | –
Cc1nnc2n1-c1sc(CCC(=O)N3CCOCC3)cc1C(c1ccccc1Cl)=NC2 [WEB 2086, 3-[4-(2-chlorophenyl)-9-methyl-6H-thieno[3,2-f][1,2,4]triazolo[4,3-a][1,4]diazepin-2-yl]propionic acid morpholide, reference compound] | exhibit more potent PAF-antagonistic activity | 1.6 | 0.125
